Assay results: US20260183303A1, “PDK1 REGULATORY COMPOUND AND COMPOSITION CONTAINING THE SAME” (PROVIBIO CO., LTD., priority 2024, published 2026)

What was measured:
[1] = tested on: T cells isolated from mouse spleens; assay: T cell proliferation inhibition (CFSE flow cytometry, anti-CD3/anti-CD28 activation); assay type: cell-based, C57BL/6 mice; settings: mouse spleen T cells, CD3/CD28 activated, cultured three days
Method in brief: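 Splenic T cells from 7-week-old C57BL/6 mice were CFSE-labelled and seeded at 2×10^5/well. They were activated with anti-CD3/anti-CD28 ([…]) and treated with compound at […] in triplicate for 3 days at 37 °C. Proliferation was read by CFSE dilution on flow cytometry and expressed as % inhibition.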

[2] = tested on: HCT-116 colon cancer cell lines; assay: Invasion Assay using Matrigel, HCT-116; assay type: cell-based, Human; settings: HCT-116, Matrigel, 24 hours treatment, vs DMSO
Experimental: To evaluate the metastasis inhibitory efficacy of the compounds of the present invention on HCT-116 colon cancer cell lines, an Invasion Assay using Matrigel was performed to assess the cells' invasion ability.
First, Matrigel was thawed on ice in RPMI-1640 medium without FBS, then diluted with DMEM at a ratio of 1:20.
The diluted Matrigel mixture was applied to the upper chamber at 100 μl per well, and 750 μl of RPMI-1640 without FBS was added to the lower chamber.
The plates were then incubated at 37° C. for 1 hour to allow the Matrigel to solidify.
After coating, the Matrigel mixture in the upper chamber was removed using a pipette, and the chamber was washed with RPMI without FBS.
Human-derived colorectal cancer cell line HCT-116, obtained from the Korean Cell Bank, was cultured in RPMI-1640 medium containing 10% FBS. […]
After staining was complete, any remaining cells in the upper chamber were removed. Finally, the infiltrated cells were observed under a microscope, photographed, and the degree of infiltration was analyzed.

psoriasis-induced mice = assay: In vivo psoriasis model (Aldara cream, Imiquimod); parameters: species or system BALB/c mice
Experimental: To verify the therapeutic effect of the compound according to the present invention on psoriasis, a psoriasis animal model was established as follows, and the compound according to the present invention was administered to evaluate the alleviation of skin lesions and changes in immune cell patterns.
For the establishment of the psoriasis animal model, BALB/c mice (7 weeks old, female, 20 g) were purchased from HanabioTech Co., Ltd. and acclimatized to the rearing environment for one week.
Subsequently, the hair on the mouse back was shaved using a hair removal device for the first time, and then completely shaved using a depilatory cream (Nicrin Cream (80% thioglycolic acid, II Dong Pharmaceutical)) for the second time. […]
Body weights of mice in each group were measured on days 1, 4, and 8 after the start of injection and psoriasis induction. […]
To evaluate the therapeutic effect in a psoriasis-induced mouse model, the PASI (Psoriasis Area and Severity Index) score was measured.
The PASI score is based on three criteria: erythema, scaling, and skin thickness, each scored from 0 (none) to 4 (severe). […]
Observations were conducted daily at the same time, and the same observer visually assessed each criterion and recorded the scores, with the results presented in FIG. 13. […]
All samples were measured in duplicate, and the absorbance was measured at 450 nm using a microplate reader.

| Compound | Proliferation inhibition rate (%) ([1]; 10 nM) | Proliferation inhibition rate (%) ([1]; 100 nM) | Proliferation inhibition rate (%) ([1]; 1 μM) | Proliferation inhibition rate (%) ([1]; 10 μM) | Proliferation inhibition rate (%) ([1]; 30 μM) | Proliferation inhibition rate (%) ([1]; 50 μM) | number of infiltrated cells (invasion) [2] | efficacy in improving dermatological symptoms (psoriasis-induced mice) |
| --- | --- | --- | --- | --- | --- | --- | --- | --- |
| 12-(4-Hydroxypiperazin-1-Yl)Dodecyl-N-(6-Aminopurazin-2-Yl)Carboxamide [Compound 10] | 100.00% | 100.00% | 100.00% | 100.00% | 100.00% | 100.00% | reduction in the number of infiltrated cells |  |
| Nc1nc(NC(=O)CCCCCCCCCCCCN2CCN(CCO)CC2)nc2nc[nH]c12 [Compound 15, 12-[4-(2-Hydroxyethyl)Piperazin-1-Yl]Dodecyl-N-(6-Aminopurine-2-Yl)Carboxamide] |  |  |  |  |  |  |  | excellent efficacy in improving dermatological symptoms |
